Calls of active or inactive are those of the source. The calls are words filed in the database; no cut-off is given here.
Key:
[1] = molecular target: T1, Bile acid receptor (Homo sapiens) (UniProt Q96RI1); assay: Agonist activity at human FXR expressed in HepG2 cells assessed as renilla luciferase activity at 20 uM by luciferase based transactivation assay; type: functional, cell-based
T1 sequence (whole entry): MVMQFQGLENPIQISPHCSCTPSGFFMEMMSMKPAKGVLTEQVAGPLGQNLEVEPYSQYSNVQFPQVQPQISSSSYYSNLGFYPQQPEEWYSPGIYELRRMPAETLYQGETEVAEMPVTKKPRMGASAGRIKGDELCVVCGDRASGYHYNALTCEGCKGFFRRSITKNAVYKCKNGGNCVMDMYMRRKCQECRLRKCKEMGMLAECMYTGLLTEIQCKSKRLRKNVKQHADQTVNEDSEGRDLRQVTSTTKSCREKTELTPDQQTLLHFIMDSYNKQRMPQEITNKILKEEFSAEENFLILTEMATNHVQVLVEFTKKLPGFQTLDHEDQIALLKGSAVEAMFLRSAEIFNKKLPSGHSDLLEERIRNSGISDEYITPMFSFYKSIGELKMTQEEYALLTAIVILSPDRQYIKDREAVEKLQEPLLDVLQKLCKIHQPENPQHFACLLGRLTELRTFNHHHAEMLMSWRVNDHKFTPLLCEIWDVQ

[2] = molecular target: T2, G-protein coupled bile acid receptor 1 (Homo sapiens, UniProt Q8TDU6); assay: Agonist activity at human TGR5 receptor expressed in NCI-H716 cells assessed as intracellular cAMP level by TR-FRET assay; type: functional, cell-based
T2 sequence (Q8TDU6 whole entry): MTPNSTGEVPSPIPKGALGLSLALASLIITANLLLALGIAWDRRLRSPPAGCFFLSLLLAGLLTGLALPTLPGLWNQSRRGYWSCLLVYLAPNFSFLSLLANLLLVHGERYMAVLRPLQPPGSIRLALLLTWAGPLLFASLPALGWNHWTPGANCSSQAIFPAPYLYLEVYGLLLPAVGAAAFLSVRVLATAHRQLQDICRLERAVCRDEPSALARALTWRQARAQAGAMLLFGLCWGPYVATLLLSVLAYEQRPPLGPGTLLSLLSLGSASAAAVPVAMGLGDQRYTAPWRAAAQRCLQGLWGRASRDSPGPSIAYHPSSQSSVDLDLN

[3] = molecular target: T3, Bile acid receptor (Homo sapiens, UniProt Q96RI1); assay: Agonist activity at human GST-fused FXR LBD assessed as coactivator interaction with receptor ligand binding domain by Alphascreen assay
T3 sequence (Q96RI1 whole entry): T1 sequence (whole entry)

[4] = molecular target: T1, Bile acid receptor (Homo sapiens); assay: Agonist activity at human GST-fused FXR LBD assessed as coactivator interaction with receptor ligand binding domain by Alphascreen assay relative to CDCA
[5] = molecular target: T1, Bile acid receptor (Homo sapiens); assay: Agonist activity at human FXR expressed in HepG2 cells assessed as renilla luciferase activity at 1 uM by luciferase based transactivation assay; type: functional, cell-based

Structure (SMILES)	Activity [1]	EC50 [2] [nM]	EC50 [3] [nM]	Efficacy [4] [%]	Activity [5]
C[C@H](CCNC(=O)OC/C=C/c1ccccc1)C1CC[C@H]2[C@@H]3[C@H](O)CC4C[C@H](O)CC[C@]4(C)[C@H]3CC[C@]12C (stereo partly drawn)	Active	> 100000	900	55	
CC[C@H]1[C@@H](O)[C@@H]2[C@H](CC[C@]3(C)[C@@H]([C@H](C)CCNC(=O)OC/C=C/c4ccccc4)CC[C@@H]23)[C@@]2(C)CC[C@@H](O)C[C@@H]12		55000	150	290	Active
